Assay results taken from ChEMBL document CHEMBL1153316, “Selectivity profiling of DegP substrates and inhibitors” (Bioorg Med Chem, 2009).
Peptide text beside a SMILES is read from it.

What was measured:
[1] = test system: Escherichia coli; test: Inhibition of Escherichia coli degP assessed as residual proteolytic activity at 0.5 mM
[2] = Inhibition of elastase assessed as residual proteolytic activity at 0.5 mM
[3] = Inhibition of subtilisin assessed as residual proteolytic activity at 0.5 mM
[4] = biological target: Plasminogen (Homo sapiens) (UniProt P00747); test: Inhibition of plasmin assessed as residual proteolytic activity at 0.5 mM
[5] = Inhibition of trypsin assessed as residual proteolytic activity at 0.5 mM
[6] = Inhibition of chymotrypsin assessed as residual proteolytic activity at 0.5 mM
[7] = biological target: Prothrombin (Homo sapiens) (UniProt P00734); test: Inhibition of thrombin assessed as residual proteolytic activity at 0.5 mM
[8] = Inhibition of kallikrein assessed as residual proteolytic activity at 0.5 mM
[9] = Inhibition of elastase
[10] = Inhibition of subtilisin
[11] = Inhibition of Escherichia coli degP
[12] = test system: Escherichia coli; test: Inhibition of Escherichia coli degP assessed as specific activity at 0.5 mM; design: scale not given: the % may be the effect or the level left
[13] = Inhibition of elastase assessed as specific activity at 0.5 mM; design: scale not given: the % may be the effect or the level left
[14] = Inhibition of subtilisin assessed as specific activity at 0.5 mM; design: scale not given: the % may be the effect or the level left
[15] = biological target: Plasminogen (Homo sapiens) (UniProt P00747); test: Inhibition of plasmin assessed as specific activity at 0.5 mM; design: scale not given: the % may be the effect or the level left
[16] = Inhibition of trypsin assessed as specific activity at 0.5 mM; design: scale not given: the % may be the effect or the level left
[17] = Inhibition of chymotrypsin assessed as specific activity at 0.5 mM; design: scale not given: the % may be the effect or the level left
[18] = biological target: Prothrombin (Homo sapiens) (UniProt P00734); test: Inhibition of thrombin assessed as specific activity at 0.5 mM; design: scale not given: the % may be the effect or the level left
[19] = Inhibition of kallikrein assessed as specific activity at 0.5 mM; design: scale not given: the % may be the effect or the level left
[20] = test system: Escherichia coli; test: Activity at Escherichia coli degP

Sequence of Plasminogen (Homo sapiens) (P00747 97-580 limits assumed): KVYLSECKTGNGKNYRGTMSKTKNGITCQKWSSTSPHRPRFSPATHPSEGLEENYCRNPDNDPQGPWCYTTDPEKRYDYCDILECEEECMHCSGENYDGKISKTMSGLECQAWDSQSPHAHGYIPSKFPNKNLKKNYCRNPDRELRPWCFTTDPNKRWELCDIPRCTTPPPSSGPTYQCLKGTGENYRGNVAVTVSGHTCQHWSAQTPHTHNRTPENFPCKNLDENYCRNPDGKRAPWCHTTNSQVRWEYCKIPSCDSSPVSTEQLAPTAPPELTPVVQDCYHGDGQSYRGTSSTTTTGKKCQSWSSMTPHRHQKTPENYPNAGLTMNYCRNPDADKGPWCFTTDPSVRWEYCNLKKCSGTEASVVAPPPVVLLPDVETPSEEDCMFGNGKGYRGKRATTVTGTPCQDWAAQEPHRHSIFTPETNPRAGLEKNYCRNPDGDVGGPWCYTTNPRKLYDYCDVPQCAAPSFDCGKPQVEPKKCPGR
Sequence of Plasminogen (Homo sapiens) (P00747 581-810 limits assumed): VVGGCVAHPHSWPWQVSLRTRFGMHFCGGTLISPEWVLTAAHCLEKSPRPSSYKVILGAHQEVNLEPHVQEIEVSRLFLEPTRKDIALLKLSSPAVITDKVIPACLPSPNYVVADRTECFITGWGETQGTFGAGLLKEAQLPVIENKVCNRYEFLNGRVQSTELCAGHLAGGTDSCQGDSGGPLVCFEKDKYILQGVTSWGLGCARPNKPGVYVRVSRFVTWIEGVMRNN

Activity [1] | Activity [2] | Activity [3] | Activity [4] | Activity [5] | Activity [6] | Activity [7] | Activity [8] | SMILES | also measured
3% | < 1% | < 1% | 81% | 354% | 92% | 96% | 101% | CSCC[C@H](NC(=O)[C@@H]1CCCN1C(=O)[C@@H](N)CO)C(=O)N[C@@H](Cc1ccccc1)C(=O)N[C@@H](CCCCN)C(=O)NCC(=O)N[C@H](C(=O)CCl)C(C)C (HELM PEPTIDE1{S.P.M.F.K.G.V.[ClC[*:1]]}$$$$V2.0) | IC50 [9]: 220 µM; IC50 [10]: 0.001 µM; IC50 [11]: 75 µM
– | – | – | – | – | – | – | – | CSCC[C@H](NC(=O)[C@@H]1CCCN1C(=O)[C@@H](N)CC(=O)O)C(=O)N[C@@H](Cc1ccccc1)C(=O)N[C@@H](CCCCN)C(=O)N[C@@H](CC(C)C)C(=O)N[C@H](C(=O)Nc1ccc([N+](=O)[O-])cc1)C(C)C (HELM PEPTIDE1{D.P.M.F.K.L.V.[O=[N+]([O-])c1ccc(N[*:1])cc1]}$$$$V2.0) | Activity [12]: 473%; Activity [13]: 4%; Activity [14]: 1%; Activity [15]: < 1%; Activity [16]: < 1%; Activity [17]: < 1%; Activity [18]: < 1%; Activity [19]: < 1%; Km [20]: 600 µM; Vmax [20]: 1.2 µmol/min
49% | < 1% | 5% | 71% | 348% | 53% | 122% | 108% | CSCC[C@H](NC(=O)[C@H](CCSC)NC(=O)[C@@H]1CCCN1)C(=O)NCC(=O)N[C@@H](CCCCN)C(=O)N[C@@H](C)C(=O)N[C@@H](CO)C(=O)N1CCC[C@H]1C(=O)N[C@H](C(=O)CCl)C(C)C (HELM PEPTIDE1{P.M.M.G.K.A.S.P.V.[ClC[*:1]]}$$$$V2.0) | –
